Assay results reported in the supplement of paper PMC10627819.

Assays:
S. aureus Newman = assay: Bliss interaction score (quartile over a dose matrix) (fitness difference); higher = more antagonism (negative = synergy)
In short: (§1)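 Quartiles summarise the Bliss score over technical, biological and donor/recipient replicates, where the score is observed minus expected fitness under a product model. Expected fitness uses single-drug values inferred from combination data. Fitness is OD595 at entry into stationary phase over the plate's robust no-drug mean, capped at 1.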

B. subtilis 168 [1] = assay: as above
In short: as §1

S. aureus DSM 20231 = assay: as above
In short: as §1

S. pneumoniae D39V [2] = assay: as above
In short: as §1

B. subtilis 168 [3] = assay: fitness (endpoint OD595 vs no drug) (fraction); higher = more growth
In short: (§2)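 Plates with 384 wells were inoculated at OD595 0.01 using 30 µl of TSB, LB Lennox or CY, or 55 µl for S. pneumoniae. Incubation was at 37 °C, with OD595 measured every 30 min for 14 h. Fitness is the stationary-phase transition optical density over the robust mean of no-drug control wells, after first-reading background subtraction; it is capped at 1.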

S. pneumoniae D39V [4] = assay: as above
In short: as §2
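For Bliss interaction score (quartile over a dose matrix) in this document: first quartile when negative (synergy) and third quartile when positive (antagonism).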

CCC[C@@H]1C[C@@H](C(=O)N[C@@H]([C@H]2O[C@H](SC)[C@H](O)[C@@H](O)[C@H]2O)[C@@H](C)O)N(C)C1 [Lincomycin] + CCC(C)C1C(=O)NC(=C)C(=O)NC(C(=O)NC(CSCC(C(=O)N1)NC(=O)/C(=C/C)/NC(=O)C(C(C)CC)N)C(=O)NC2C(SCC(NC(=O)CNC(=O)C3CCCN3C2=O)C(=O)NC(CCCCN)C(=O)NC4C(SCC(NC(=O)CNC(=O)C(NC(=O)C(NC(=O)C(NC(=O)CNC4=O)C)CC(C)C)CCSC)C(=O)NC(CC(=O)N)C(=O)NC(CCSC)C(=O)NC(CCCCN)C(=O)NC5C(SCC6C(=O)NC(C(=O)NC(CSC(C(C(=O)N6)NC(=O)C(NC5=O)C)C)C(=O)NC(CO)C(=O)NC(C(C)CC)C(=O)NC(CC7=CN=CN7)C(=O)NC(C(C)C)C(=O)NC(=C)C(=O)NC(CCCCN)C(=O)O)CC8=CN=CN8)C)C)C)CC(C)C [Nisin]
main component drawn
Conditions	Bliss interaction score
B. subtilis 168 [1]	0.0535
S. aureus DSM 20231	0.117
S. aureus Newman	0.0755
S. pneumoniae D39V [2]	-0.0491

main component drawn
Conditions	fitness
B. subtilis 168 [3], first compound 0.1 µg/mL, partner 0.5 µg/mL	0.888
B. subtilis 168 [3], first compound 0.1 µg/mL, partner 1 µg/mL	0.873
B. subtilis 168 [3], first compound 0.1 µg/mL, partner 2 µg/mL	0.542
B. subtilis 168 [3], first compound 0.2 µg/mL, partner 0.5 µg/mL	0.866
B. subtilis 168 [3], first compound 0.2 µg/mL, partner 1 µg/mL	0.839
B. subtilis 168 [3], first compound 0.2 µg/mL, partner 2 µg/mL	0.58
B. subtilis 168 [3], first compound 0.4 µg/mL, partner 0.5 µg/mL	0.903
B. subtilis 168 [3], first compound 0.4 µg/mL, partner 1 µg/mL	0.876
B. subtilis 168 [3], first compound 0.4 µg/mL, partner 2 µg/mL	0.643
S. pneumoniae D39V [4], first compound 0.2 µg/mL, partner 0.4275 µg/mL	0.751
S. pneumoniae D39V [4], first compound 0.2 µg/mL, partner 0.855 µg/mL	0.816
S. pneumoniae D39V [4], first compound 0.2 µg/mL, partner 1.71 µg/mL	0.0439
S. pneumoniae D39V [4], first compound 0.215 µg/mL, partner 3.2 µg/mL	0.0034
S. pneumoniae D39V [4], first compound 0.215 µg/mL, partner 6.4 µg/mL	0.0021
S. pneumoniae D39V [4], first compound 0.4 µg/mL, partner 0.4275 µg/mL	0.711
S. pneumoniae D39V [4], first compound 0.4 µg/mL, partner 0.855 µg/mL	0.197
S. pneumoniae D39V [4], first compound 0.4 µg/mL, partner 1.71 µg/mL	0.03
S. pneumoniae D39V [4], first compound 0.43 µg/mL, partner 3.2 µg/mL	0.0144
S. pneumoniae D39V [4], first compound 0.43 µg/mL, partner 6.4 µg/mL	0.0124
S. pneumoniae D39V [4], first compound 0.8 µg/mL, partner 0.4275 µg/mL	0.188
S. pneumoniae D39V [4], first compound 0.8 µg/mL, partner 0.855 µg/mL	0.124
S. pneumoniae D39V [4], first compound 0.8 µg/mL, partner 1.71 µg/mL	0.0586
S. pneumoniae D39V [4], first compound 0.86 µg/mL, partner 1.6 µg/mL	0.0707
S. pneumoniae D39V [4], first compound 0.86 µg/mL, partner 3.2 µg/mL	0.0001
S. pneumoniae D39V [4], first compound 0.86 µg/mL, partner 6.4 µg/mL	0.0011

fitness, B. subtilis 168 [3], one replicate, main component drawn
Conditions	partner 1.25 µg/mL	partner 1.6 µg/mL	partner 2.5 µg/mL	partner 3.2 µg/mL	partner 4 µg/mL	partner 5 µg/mL	partner 6.4 µg/mL	partner 8 µg/mL	partner 16 µg/mL
first compound 0.1 µg/mL	–	–	–	–	0.432	–	–	0.0171	0.0218
first compound 0.2 µg/mL	–	–	–	–	0.212	–	–	0.0182	0.0151
first compound 0.4 µg/mL	0.885	0.635	0.621	0.0271	0.202	0.0364	0.0378	0.0085	0.0174
first compound 0.8 µg/mL	0.858	0.572	0.573	0.0171	–	0.065	0.035	–	–
first compound 1.6 µg/mL	0.836	0.571	0.356	0.0205	–	0.0299	0.0358	–	–

CCC[C@@H]1C[C@@H](C(=O)N[C@@H]([C@H]2O[C@H](SC)[C@H](O)[C@@H](O)[C@H]2O)[C@@H](C)O)N(C)C1 [Lincomycin] + CN(C)C(=O)C(CCN1CCC(O)(c2ccc(Cl)cc2)CC1)(c1ccccc1)c1ccccc1 [Loperamide]
Conditions	Bliss interaction score
B. subtilis 168 [1]	-0.175
S. aureus DSM 20231	-0.058
S. aureus Newman	-0.0788
S. pneumoniae D39V [2]	0.187

Conditions	fitness
B. subtilis 168 [3], first compound 0.1 µg/mL, partner 100 µg/mL	0.0294
B. subtilis 168 [3], first compound 0.2 µg/mL, partner 100 µg/mL	0.0794
B. subtilis 168 [3], first compound 0.4 µg/mL, partner 100 µg/mL	0.0368
S. pneumoniae D39V [4], first compound 0.2 µg/mL, partner 17.14 µg/mL	0.799
S. pneumoniae D39V [4], first compound 0.2 µg/mL, partner 34.28 µg/mL	0.811
S. pneumoniae D39V [4], first compound 0.215 µg/mL, partner 20 µg/mL	0.902
S. pneumoniae D39V [4], first compound 0.215 µg/mL, partner 40 µg/mL	0.911
S. pneumoniae D39V [4], first compound 0.215 µg/mL, partner 80 µg/mL	0.897
S. pneumoniae D39V [4], first compound 0.4 µg/mL, partner 17.14 µg/mL	0.725
S. pneumoniae D39V [4], first compound 0.4 µg/mL, partner 34.28 µg/mL	0.685
S. pneumoniae D39V [4], first compound 0.43 µg/mL, partner 20 µg/mL	0.827
S. pneumoniae D39V [4], first compound 0.43 µg/mL, partner 40 µg/mL	0.83
S. pneumoniae D39V [4], first compound 0.43 µg/mL, partner 80 µg/mL	0.809
S. pneumoniae D39V [4], first compound 0.8 µg/mL, partner 17.14 µg/mL	0.535
S. pneumoniae D39V [4], first compound 0.8 µg/mL, partner 34.28 µg/mL	0.44
S. pneumoniae D39V [4], first compound 0.86 µg/mL, partner 20 µg/mL	0.599
S. pneumoniae D39V [4], first compound 0.86 µg/mL, partner 40 µg/mL	0.632
S. pneumoniae D39V [4], first compound 0.86 µg/mL, partner 80 µg/mL	0.525

S. pneumoniae D39V [4], partner 68.57 µg/mL, one replicate
Conditions	fitness
first compound 0.2 µg/mL	0.87
first compound 0.4 µg/mL	0.769
first compound 0.8 µg/mL	0.54

CCC[C@@H]1C[C@@H](C(=O)N[C@@H]([C@H]2O[C@H](SC)[C@H](O)[C@@H](O)[C@H]2O)[C@@H](C)O)N(C)C1 [Lincomycin] + CN(C)c1cc(NC(=O)CNC(C)(C)C)c(O)c2c1C[C@H]1C[C@H]3[C@H](N(C)C)C(O)=C(C(N)=O)C(=O)[C@@]3(O)C(O)=C1C2=O [Tigecycline]
Conditions	Bliss interaction score
B. subtilis 168 [1]	-0.076
S. aureus DSM 20231	-0.213
S. aureus Newman	0.0588
S. pneumoniae D39V [2]	-0.133

fitness
Conditions	first compound 0.1 µg/mL	first compound 0.2 µg/mL	first compound 0.215 µg/mL	first compound 0.4 µg/mL	first compound 0.43 µg/mL	first compound 0.8 µg/mL	first compound 0.86 µg/mL
B. subtilis 168 [3], partner 0.039 µg/mL	0.894	0.865	–	0.979	–	–	–
B. subtilis 168 [3], partner 0.078 µg/mL	0.953	0.861	–	0.897	–	–	–
B. subtilis 168 [3], partner 0.156 µg/mL	0.924	0.867	–	0.846	–	–	–
S. pneumoniae D39V [4], partner 0.65 µg/mL	–	0.637	0.804	0.572	0.745	0.275	0.238
S. pneumoniae D39V [4], partner 1.3 µg/mL	–	0.63	0.789	0.578	0.694	0.314	0.213
S. pneumoniae D39V [4], partner 2.6 µg/mL	–	0.618	0.802	0.572	0.648	0.186	0.156

fitness, B. subtilis 168 [3], one replicate
Conditions	first compound 0.4 µg/mL	first compound 0.8 µg/mL	first compound 1.6 µg/mL
partner 0.125 µg/mL	0.977	≥ 1	0.944
partner 0.25 µg/mL	0.856	0.886	0.845
partner 0.5 µg/mL	0.867	0.888	0.907
